Columns and labels:
[1] = biological target: T1, CISD2 Gene Product (NAF-1) (Homo sapiens, UniProt Q8N5K1); experiment: Stability of Fe-S cluster binding of purified NEET protein (absorbance 458 nm); assay type: biochemical; conditions: NAF-1 20 μM, compound 60 μM; for Time (in minutes) to achieve 50% loss of bound cluster (Absorbance 458 nm): pH 6, 37° C., run time 500 minutes, vehicle control 310 or 210; for Residual cluster bound at end of experiment (Percentage Absorbance 458 nm at time zero): pH 6, at 500 minutes, vehicle control 3%
T1 sequence (Q8N5K1 57-135 limits assumed): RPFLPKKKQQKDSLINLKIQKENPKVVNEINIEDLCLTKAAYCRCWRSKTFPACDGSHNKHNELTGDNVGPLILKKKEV
Summary of the method: (§1)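 Purified NEET protein (20 μM) with compound (60 μM, 1:3 molar ratio) in 100 mM Bis-Tris pH 6, 100 mM NaCl, 66 μM DMSO at 37 °C; 458 nm absorbance decay read every 5 min for 500 min (NAF-1) or 180 min (mitoNEET, Miner2). Outputs: time to 50% absorbance loss and residual % bound cluster, versus protein alone.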

[2] = biological target: T2, CISD3 Gene Product (Miner2) (Homo sapiens, UniProt P0C7P0); experiment: as above; assay type: biochemical; conditions: for Residual cluster bound at end of experiment (Percentage Absorbance 458 nm at time zero): CISD3 gene product 20 μM, pH 6, at 180 minutes, vehicle control 11%; for Residual cluster bound at end of experiment (Percentage Absorbance 458 nm at time zero) / Time (in minutes) to achieve 50% loss of bound cluster (Absorbance 458 nm): compound 60 μM; for Time (in minutes) to achieve 50% loss of bound cluster (Absorbance 458 nm): Miner2 20 μM, pH 6, 37° C., run time 180 minutes, vehicle control 60; for Stabiliser or destabiliser of Fe-S cluster binding by CISD3 Gene Product (Miner2): time to 50% cluster loss changed by more than 25% compared to the Control sample, at the concentrations tested
T2 sequence (P0C7P0 15-127): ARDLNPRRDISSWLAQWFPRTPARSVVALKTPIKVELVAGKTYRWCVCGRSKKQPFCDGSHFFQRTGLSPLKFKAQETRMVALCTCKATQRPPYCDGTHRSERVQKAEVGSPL
Summary of the method: as §1

SMILES | Time (in minutes) to achieve 50% loss of bound cluster (Absorbance 458 nm) [1] | Residual cluster bound at end of experiment (Percentage Absorbance 458 nm at time zero) [1] | Residual cluster bound at end of experiment (Percentage Absorbance 458 nm at time zero) [2] | Time (in minutes) to achieve 50% loss of bound cluster (Absorbance 458 nm) [2] | Stabiliser or destabiliser of Fe-S cluster binding by CISD3 Gene Product (Miner2) [2]
COC1CN(c2ccc(C(=O)Nc3sc4c(c3C(=O)O)CC(C)(C)CC4(C)C)cc2)C1 [Compound #58, 2-[[4-(3-Methoxyazetidin-1-yl)benzoyl]amino]-5,5,7,7-tetramethyl-4,6-dihydrobenzothiophene-3-carboxylic acid] | 280 (310) minutes | 39% (3%) | 44% (11%) | 125 (60) minutes | Stabilisers
CC1(C)CCc2sc(NC(=O)c3ccccc3)c(C(=O)O)c21 [Compound #37, 2-Benzamido-4,4-dimethyl-5,6-dihydrocyclopenta[b]thiophene-3-carboxylic acid] | 280 (210) minutes | 3% (3%) | 37% (11%) | 75 (60) minutes | Stabilisers
CC1(C)Cc2c(sc(NC(=O)c3ccc(N4CCOCC4)cc3)c2C(=O)O)C(C)(C)C1 [Compound #36, 5,5,7,7-Tetramethyl-2-[(4-morpholinobenzoyl)amino]-4,6-dihydrobenzothiophene-3-carboxylic acid] | 210 (210) minutes | 30% (3%) | 39% (11%) | 80 (60) minutes | Stabilisers
